These results are taken from US12662451B2, “Chemical compounds and uses thereof” (GLAXOSMITHKLINE INTELLECTUAL PROPERTY (NO.4) LIMITED, priority 2023, dated 2026).

Where a name gives a salt, the structure may show the parent alone. Read-outs that look alike come from different tables or passages of the source.

Data set [1] is described as follows: Cell culture media unbound percentage and stability by rapid equilibrium dialysis (Example C). To be noted: bovine, cell assay medium (RPMI-1640 with 10% fetal bovine serum), pH 7.4, rapid equilibrium dialysis, 4 hours at 37° C., read-out: Cell Culture Media Binding (% unbound). It is filed as in vitro ADME. Here is the method:
(§1) It was observed that the compounds of the present disclosure are bound to cell assay media to various degrees, which would affect the cellular potency analysis in Example B. To measure free drug potency, concentrations used in the cell assays were corrected with the measured free fraction determined in the cell assay media. Compounds were incubated in a rapid equilibrium dialysis (RED) at a nominal concentration of 1 μM, using a dialysis buffer of phosphate-buffered saline (PBS, 100 mM sodium phosphate+150 mM sodium chloride, pH 7.4). The test compound was spiked into the medium. Aliquots were added to the donor wells of a RED plate in triplicate, and blank PBS was added to each receiver well, at volumes recommended by the manufacturer. Plates were incubated with shaking at 200 rpm for 4 hours at 37° C. The resultant samples were analysed by LC-MS/MS using a specific and sensitive method. Results were reported as analyte:internal standard peak area ratios (PARs), and the percent unbound was calculated with the following equation:
[formula] where D=the matrix dilution factor (D=1 for media); Apparent Fu=Crec/Cdon; Crec=PAR in receiver samples; Cdon=PAR in donor samples. Percent stability was calculated by:
(§2) [formula] where Cfinal=PAR in the T=240 minute sample; Cinitial=PAR in the T=0 minute sample. Cell culture media unbound percentage and calculated free drug potency of selected compounds along with their measured potency from Example B are shown in Table 3.

The subject of data set [2] is SW48 human colorectal cancer cells. As to the kind of experiment: Calculated free drug potency in SW48 cell assay, corrected with media free fraction (Example C). The following applies: Homo sapiens, SW48, SW48 pCC50 corrected with measured free fraction in cell assay media. In kind it is cell-based. Here is the method:
as §1, §2

In data set [3] the target is T1, recombinant full-length WRN protein (1-1432) (Homo sapiens, UniProt Q14191).
T1 construct: recombinant full-length WRN protein (1-1432)
T1 sequence (Q14191 whole entry): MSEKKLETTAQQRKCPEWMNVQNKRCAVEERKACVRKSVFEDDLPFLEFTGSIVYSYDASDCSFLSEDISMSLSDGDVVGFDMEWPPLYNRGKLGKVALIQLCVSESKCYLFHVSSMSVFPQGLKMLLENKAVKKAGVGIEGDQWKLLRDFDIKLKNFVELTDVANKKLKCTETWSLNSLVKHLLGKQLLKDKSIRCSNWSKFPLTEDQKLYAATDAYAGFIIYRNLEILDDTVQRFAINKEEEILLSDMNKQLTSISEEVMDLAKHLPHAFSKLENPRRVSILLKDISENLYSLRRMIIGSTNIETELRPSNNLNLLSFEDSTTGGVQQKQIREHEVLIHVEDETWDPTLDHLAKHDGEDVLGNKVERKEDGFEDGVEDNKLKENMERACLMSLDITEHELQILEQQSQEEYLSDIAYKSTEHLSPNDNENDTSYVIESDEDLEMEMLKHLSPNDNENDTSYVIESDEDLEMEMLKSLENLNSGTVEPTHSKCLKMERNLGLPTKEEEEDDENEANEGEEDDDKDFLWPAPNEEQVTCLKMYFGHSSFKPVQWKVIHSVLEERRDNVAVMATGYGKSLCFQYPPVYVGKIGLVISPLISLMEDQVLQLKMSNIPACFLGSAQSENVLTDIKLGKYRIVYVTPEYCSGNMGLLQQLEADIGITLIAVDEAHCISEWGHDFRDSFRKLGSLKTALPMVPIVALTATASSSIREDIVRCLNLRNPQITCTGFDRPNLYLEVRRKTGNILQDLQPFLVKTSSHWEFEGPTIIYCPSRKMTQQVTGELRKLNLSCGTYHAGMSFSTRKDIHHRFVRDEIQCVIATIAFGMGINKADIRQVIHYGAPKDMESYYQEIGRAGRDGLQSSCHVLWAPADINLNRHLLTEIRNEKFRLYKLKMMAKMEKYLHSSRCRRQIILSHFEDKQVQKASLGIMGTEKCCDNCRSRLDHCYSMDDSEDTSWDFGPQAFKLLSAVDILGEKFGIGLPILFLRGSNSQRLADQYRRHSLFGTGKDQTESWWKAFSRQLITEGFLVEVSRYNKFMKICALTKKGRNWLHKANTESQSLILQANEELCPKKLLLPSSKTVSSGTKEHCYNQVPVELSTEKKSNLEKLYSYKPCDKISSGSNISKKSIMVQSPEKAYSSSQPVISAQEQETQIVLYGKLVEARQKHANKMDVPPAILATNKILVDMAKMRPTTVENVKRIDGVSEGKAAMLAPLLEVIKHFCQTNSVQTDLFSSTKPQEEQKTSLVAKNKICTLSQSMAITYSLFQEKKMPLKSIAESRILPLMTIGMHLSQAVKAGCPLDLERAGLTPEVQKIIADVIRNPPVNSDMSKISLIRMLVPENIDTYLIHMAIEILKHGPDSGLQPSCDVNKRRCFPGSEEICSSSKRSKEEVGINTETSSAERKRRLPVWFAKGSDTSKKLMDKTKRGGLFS
Description: WRN unwinding activity, fluorogenic 384-well assay (Example A). It is filed as biochemical. The following applies: WRN unwinding activity, 4 hr; Table 2; read-out: 4 hr UNW pIC50 (converted). In a few lines: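 200 pM enzyme (2× stock) preincubated with compound 4 h at ambient temperature, then 200 μM ATP and 12 nM quenched TAMRA-labelled dsDNA (2× stocks) added for 60 min; EDTA-quenched. Buffer 25 mM Tris pH 8.0, 5 mM NaCl, 2 mM MgCl2. Fluorescence at 525/598 nm; pIC50 from four-parameter fit.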

For data set [4], the system named is SW48 human colorectal cancer cells (MSI-H cancer cells). As to the kind of experiment: SW48 cell viability, CellTiter-Glo, 120 hours (Example B). The following applies: Homo sapiens. A general note: Cellular ATP, detected with luciferase, serves as a proxy for viable cell number.
Where [5] appears, read: SW48, 120 h, read-out: SW48 pCC50, SW48 cell viability, 120 hours incubation (converted), Table 2.
Where [6] appears, read: SW48, read-out: SW48 pCC50, measured potency from Example B, as repeated in Table 3 (converted).

`Cc1nc2cc(S(=O)(=O)N(C)c3ccc([C@@H]4CCC[C@H](C(=O)Nc5ccc(C(F)(F)F)cn5)[C@H]4C(=O)O)cc3)ccc2n1C` (relative stereo) [Example 168, rel-(1R,2R,6S)-2-((5-(trifluoromethyl)pyridin-2-yl)carbamoyl)-6-(4-((N,1,2-trimethyl-1H-benzo[d]imidazole)-5-sulfonamido)phenyl)cyclohexane-1-carboxylic acid]: in data set [1], the fraction unbound at 4 h, 1 µM came to 0.0585. The results for the CC50 in data set [2], in data set [4] (setting [5]) and in data set [4] (setting [6]) were 37.2 nM, 631 nM and 631 nM, respectively. Further, the IC50 in data set [3] was 2.51 nM.

Regarding `Cc1nc2cc(S(=O)(=O)N(C)c3ccc([C@@H]4CCC[C@H](COc5ccc(C(F)(F)F)cc5)[C@H]4C(=O)O)cc3)cc([C@@H]3CCCNC3)c2n1C` (relative stereo) [Example 207, rel-(1R,2R,6S)-2-((4-(trifluoromethyl)phenoxy)methyl)-6-(4-((N,1,2-trimethyl-7-((R)-piperidin-3-yl)-1H-benzo[d]imidazole)-5-sulfonamido)phenyl)cyclohexane-1-carboxylic acid, hydrochloride], the fraction unbound at 4 h, 1 µM in data set [1] was 0.0138. For the same compound, the CC50 was 110 nM in data set [2], 7940 nM in data set [4] (setting [5]) and 7940 nM in data set [4] (setting [6]). Further, in data set [3], the IC50 was 1.58 nM.

Consider `Cc1nc2cc(S(=O)(=O)N(C)c3ccc([C@H]4CC[C@@H](C)[C@@H](C(=O)Nc5ccc(C(F)(F)F)cc5F)[C@@H]4C(=O)O)cc3)ccc2n1C` (relative stereo) [Example 235, rel-(1R,2R,3R,6S)-2-((2-fluoro-4-(trifluoromethyl)phenyl)carbamoyl)-3-methyl-6-(4-((N,1,2-trimethyl-1H-benzo[d]imidazole)-5-sulfonamido)phenyl)cyclohexane-1-carboxylic acid], for which, in data set [1], the fraction unbound at 4 h, 1 µM was determined as 0.0332. In addition, the results for the CC50 in data set [2], in data set [4] (setting [5]) and in data set [4] (setting [6]) were 8.32 nM, 251 nM and 251 nM, respectively. In addition, in data set [3], the IC50 was 2 nM.

`Cc1nc2cc(S(=O)(=O)N(C)c3ccc([C@H]4CCC[C@@H](C(=O)Nc5ccc(C(F)(F)F)cc5F)[C@@H]4C(=O)O)cc3)cc([C@H]3CCCNC3)c2n1C` (relative stereo) [Example 269, (1R,2R,6S)-2-((2-fluoro-4-(trifluoromethyl)phenyl)carbamoyl)-6-(4-((N,1,2-trimethyl-7-((R*)-piperidin-3-yl)-1H-benzo[d]imidazole)-5-sulfonamido)phenyl)cyclohexane-1-carboxylic acid hydrochloride]: in data set [1], the fraction unbound at 4 h, 1 µM worked out at 0.257. Also, the CC50 in data set [2] is 646 nM; in data set [4] (setting [5]), 2510 nM; in data set [4] (setting [6]), 2510 nM. For the same compound, the IC50 in data set [3] was 0.794 nM.

On to `Cc1nc2cc(S(=O)(=O)N(C)c3ccc([C@H]4CCC[C@@H](C(=O)Nc5ccc(C(F)(F)F)cc5F)[C@@H]4C(=O)O)cc3)cc([C@H]3CCCN(C)C3)c2n1C` (relative stereo) [Example 271, (1R,2R,6S)-2-((2-fluoro-4-(trifluoromethyl)phenyl)carbamoyl)-6-(4-((N,1,2-trimethyl-7-((R*)-1-methylpiperidin-3-yl)-1H-benzo[d]imidazole)-5-sulfonamido)phenyl)cyclohexane-1-carboxylic acid], for which the fraction unbound at 4 h, 1 µM in data set [1] came out at 0.224. Further, the CC50 in data set [2] is 17.8 nM; in data set [4] (setting [5]) it was 79.4 nM; in data set [4] (setting [6]), 79.4 nM. The IC50 in data set [3] is 1.58 nM.

As for `Cc1nc2cc(S(=O)(=O)N(C)c3ccc([C@H]4C[C@@H](O[C@@H]5CCOC5)C[C@@H](C(=O)Nc5ccc(C(F)(F)F)cc5F)[C@@H]4C(=O)O)cc3)ccc2n1C` (relative stereo) [Example 321, (1R*,2R*,4R*,6S*)-2-((2-fluoro-4-(trifluoromethyl)phenyl)carbamoyl)-4-(((R)-tetrahydrofuran-3-yl)oxy)-6-(4-((N,1,2-trimethyl-1H-benzo[d]imidazole)-5-sulfonamido)phenyl)cyclohexane-1-carboxylic acid], the fraction unbound at 4 h, 1 µM in data set [1] came to 0.16. For the same compound, the values for the CC50 in data set [2], in data set [4] (setting [5]) and in data set [4] (setting [6]) were 31.6 nM, 200 nM and 200 nM, respectively. In data set [3], the IC50 is 1.58 nM.

`Cc1nc2cc(S(=O)(=O)N(C)c3ccc([C@H]4C[C@@H](OC[C@H]5COCCO5)C[C@@H](C(=O)Nc5ccc(C(F)(F)F)cc5F)[C@@H]4C(=O)O)cc3)ccc2n1C` (relative stereo) [Example 327, (1R*,2R*,4R*,6S*)-4-(((R)-1,4-dioxan-2-yl)methoxy)-2-((2-fluoro-4-(trifluoromethyl)phenyl)carbamoyl)-6-(4-((N,1,2-trimethyl-1H-benzo[d]imidazole)-5-sulfonamido)phenyl)cyclohexane-1-carboxylic acid]: the fraction unbound at 4 h, 1 µM in data set [1] is 0.296. Further, the CC50 is 58.9 nM in data set [2], 200 nM in data set [4] (setting [5]) and 200 nM in data set [4] (setting [6]). Further, the IC50 in data set [3] was 2.51 nM.

Regarding `COC12CC(CO[C@@H]3C[C@H](c4ccc(N(C)S(=O)(=O)c5ccc6c(c5)nc(C)n6C)cc4)[C@@H](C(=O)O)[C@H](C(=O)Nc4ccc(C(F)(F)F)cc4F)C3)(C1)C2` (relative stereo) [Example 332, rel-(1R,2R,4R,6S)-2-((2-fluoro-4-(trifluoromethyl)phenyl)carbamoyl)-4-((3-methoxybicyclo[1.1.1]pentan-1-yl)methoxy)-6-(4-((N,1,2-trimethyl-1H-benzo[d]imidazole)-5-sulfonamido)phenyl)cyclohexane-1-carboxylic acid], the fraction unbound at 4 h, 1 µM in data set [1] was determined as 0.122. Further, the CC50 in data set [2] was 12.3 nM; in data set [4] (setting [5]), 100 nM; in data set [4] (setting [6]), 100 nM. Besides, the IC50 in data set [3] is 3.98 nM.

For the compound `Cc1nc2cc(S(=O)(=O)N(C)c3ccc([C@H]4C[C@@H](N5CCCC(F)(F)C5)C[C@@H](C(=O)Nc5ccc(C(F)(F)F)cc5F)[C@@H]4C(=O)O)cc3)ccc2n1C` (relative stereo) [Example 353, rel-(1R,2R,4R,6S)-4-(3,3-difluoropiperidin-1-yl)-2-((2-fluoro-4-(trifluoromethyl)phenyl)carbamoyl)-6-(4-((N,1,2-trimethyl-1H-benzo[d]imidazole)-5-sulfonamido)phenyl)cyclohexane-1-carboxylic acid], in data set [1], the fraction unbound at 4 h, 1 µM is 0.113. The CC50 is 4.47 nM in data set [2], 39.8 nM in data set [4] (setting [5]) and 39.8 nM in data set [4] (setting [6]). For the same compound, the IC50 in data set [3] is 1.58 nM.

As to `CCO[C@@H]1C[C@H](c2ccc(N(C)S(=O)(=O)c3ccc4c(c3)nc(Cl)n4C)cc2)[C@@H](C(=O)O)[C@H](C(=O)Nc2ccc(C(F)(F)F)cc2F)C1` (relative stereo) [Example 361, rel-(1R,2S,4R,6R)-2-(4-((2-chloro-N,1-dimethyl-1H-benzo[d]imidazole)-5-sulfonamido)phenyl)-4-ethoxy-6-((2-fluoro-4-(trifluoromethyl)phenyl)carbamoyl)cyclohexane-1-carboxylic acid], in data set [1], the fraction unbound at 4 h, 1 µM amounted to 0.0632. Besides, the figures for the CC50 in data set [2], in data set [4] (setting [5]) and in data set [4] (setting [6]) were 31.6 nM, 501 nM and 501 nM, respectively. Besides, the IC50 in data set [3] is 1.58 nM.

In the case of `Cc1nc2cc(S(=O)(=O)N(C)c3ccc([C@H]4CC(F)(F)C[C@@H](C(=O)Nc5ccc(C(F)(F)F)cc5F)[C@@H]4C(=O)O)cc3)ccc2n1C` (relative stereo) [Example 363, rel-(1R,2R,6S)-4,4-difluoro-2-((2-fluoro-4-(trifluoromethyl)phenyl)carbamoyl)-6-(4-((N,1,2-trimethyl-1H-benzo[d]imidazole)-5-sulfonamido)phenyl)cyclohexane-1-carboxylic acid], in data set [1], the fraction unbound at 4 h, 1 µM came out at 0.216. In addition, the figures for the CC50 in data set [2], in data set [4] (setting [5]) and in data set [4] (setting [6]) were 17 nM, 79.4 nM and 79.4 nM, respectively. Further, in data set [3], the IC50 was 3.16 nM.

Take `Cc1nc2cc(S(=O)(=O)N(C)c3ccc([C@H]4C[C@@H](CS(C)(=O)=O)C[C@@H](C(=O)Nc5ccc(C(F)(F)F)cc5F)[C@@H]4C(=O)O)cc3)ccc2n1C` (relative stereo) [Example 395, rel-(1R,2R,4R,6S)-2-((2-fluoro-4-(trifluoromethyl)phenyl)carbamoyl)-4-((methylsulfonyl)methyl)-6-(4-((N,1,2-trimethyl-1H-benzo[d]imidazole)-5-sulfonamido)phenyl)cyclohexane-1-carboxylic acid]: in data set [1], the fraction unbound at 4 h, 1 µM turned out to be 0.0875. Also, the CC50 is 87.1 nM in data set [2], 1000 nM in data set [4] (setting [5]) and 1000 nM in data set [4] (setting [6]). The IC50 in data set [3] was 1.58 nM.
